Experimental data published in PubChem BioAssay (NCI).
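Values below derive from 48-hour exposures of cells grown in 96-well plates, with endpoints linearly interpolated between the two concentrations bracketing the appropriate inhibition level. TGI: total growth inhibition.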

How the values were obtained:
Assay in all cases: NCI tumour cell line growth inhibition, 48 h
786-0 renal = tested on: 786-0 renal
A498 renal = tested on: A498 renal
A549 NSCLC = tested on: A549 NSCLC
ACHN renal = tested on: ACHN renal
BT-549 breast = tested on: BT-549 breast
CAKI-1 renal = tested on: CAKI-1 renal
CCRF-CEM leukemia = tested on: CCRF-CEM leukemia
COLO 205 colon = tested on: COLO 205 colon
DU-145 prostate = tested on: DU-145 prostate
EKVX NSCLC = tested on: EKVX NSCLC
HCT-116 colon = tested on: HCT-116 colon
HCT-15 colon = tested on: HCT-15 colon
HOP-62 NSCLC = tested on: HOP-62 NSCLC
HOP-92 NSCLC = tested on: HOP-92 NSCLC
HS 578T breast = tested on: HS 578T breast
HT29 colon = tested on: HT29 colon
IGROV1 ovarian = tested on: IGROV1 ovarian
K-562 leukemia = tested on: K-562 leukemia
KM12 colon = tested on: KM12 colon
LOX IMVI melanoma = tested on: LOX IMVI melanoma
M14 melanoma = tested on: M14 melanoma
MALME-3M melanoma = tested on: MALME-3M melanoma
MCF7 breast = tested on: MCF7 breast
MDA-MB-231 breast = tested on: MDA-MB-231 breast
MDA-MB-435 = tested on: MDA-MB-435
MDA-N = tested on: MDA-N
MOLT-4 leukemia = tested on: MOLT-4 leukemia
NCI-H226 lung = tested on: NCI-H226 lung
NCI-H23 lung = tested on: NCI-H23 lung
NCI-H460 lung = tested on: NCI-H460 lung
NCI-H522 lung = tested on: NCI-H522 lung
NCI/ADR-RES ovarian = tested on: NCI/ADR-RES ovarian
OVCAR-3 ovarian = tested on: OVCAR-3 ovarian
OVCAR-4 ovarian = tested on: OVCAR-4 ovarian
OVCAR-5 ovarian = tested on: OVCAR-5 ovarian
OVCAR-8 ovarian = tested on: OVCAR-8 ovarian
PC-3 prostate = tested on: PC-3 prostate
RPMI-8226 leukemia = tested on: RPMI-8226 leukemia
RXF 393 renal = tested on: RXF 393 renal
SF-268 CNS = tested on: SF-268 CNS
SF-295 CNS = tested on: SF-295 CNS
SF-539 CNS = tested on: SF-539 CNS
SK-MEL-2 melanoma = tested on: SK-MEL-2 melanoma
SK-MEL-28 melanoma = tested on: SK-MEL-28 melanoma
SK-MEL-5 melanoma = tested on: SK-MEL-5 melanoma
SK-OV-3 ovarian = tested on: SK-OV-3 ovarian
SN12C renal = tested on: SN12C renal
SNB-19 CNS = tested on: SNB-19 CNS
SNB-75 CNS = tested on: SNB-75 CNS
SW-620 colon = tested on: SW-620 colon
T-47D breast = tested on: T-47D breast
TK-10 renal = tested on: TK-10 renal
U251 CNS = tested on: U251 CNS
UACC-257 melanoma = tested on: UACC-257 melanoma
UO-31 renal = tested on: UO-31 renal
HCC-2998 colon = tested on: HCC-2998 colon
HL-60(TB) leukemia = tested on: HL-60(TB) leukemia
SR leukemia = tested on: SR leukemia
UACC-62 melanoma = tested on: UACC-62 melanoma

Measured: TGI

CC(Nc1cccc(Cl)c1)c1ccncc1 (stereo unspecified)
> 100 µM: 786-0 renal | A498 renal | A549 NSCLC | ACHN renal | BT-549 breast | CAKI-1 renal | CCRF-CEM leukemia | COLO 205 colon | DU-145 prostate | EKVX NSCLC | HCT-116 colon | HCT-15 colon | HOP-62 NSCLC | HOP-92 NSCLC | HS 578T breast | HT29 colon | IGROV1 ovarian | K-562 leukemia | KM12 colon | LOX IMVI melanoma | M14 melanoma | MALME-3M melanoma | MCF7 breast | MDA-MB-231 breast | MDA-MB-435 | MDA-N | MOLT-4 leukemia | NCI-H226 lung | NCI-H23 lung | NCI-H460 lung | NCI-H522 lung | NCI/ADR-RES ovarian | OVCAR-3 ovarian | OVCAR-4 ovarian | OVCAR-5 ovarian | OVCAR-8 ovarian | PC-3 prostate | RPMI-8226 leukemia | RXF 393 renal | SF-268 CNS | SF-295 CNS | SF-539 CNS | SK-MEL-2 melanoma | SK-MEL-28 melanoma | SK-MEL-5 melanoma | SK-OV-3 ovarian | SN12C renal | SNB-19 CNS | SNB-75 CNS | SW-620 colon | T-47D breast | TK-10 renal | U251 CNS | UACC-257 melanoma | UO-31 renal

CC(=O)Oc1ccc2c(c1)O/C(=C\c1ccc(N(C)C)cc1)C2=O
60.8 µM: HS 578T breast
> 100 µM: 786-0 renal | A549 NSCLC | ACHN renal | BT-549 breast | CAKI-1 renal | CCRF-CEM leukemia | COLO 205 colon | DU-145 prostate | EKVX NSCLC | HCC-2998 colon | HCT-116 colon | HCT-15 colon | HL-60(TB) leukemia | HOP-62 NSCLC | HT29 colon | IGROV1 ovarian | K-562 leukemia | KM12 colon | M14 melanoma | MCF7 breast | MDA-MB-231 breast | MDA-MB-435 | MDA-N | MOLT-4 leukemia | NCI-H226 lung | NCI-H23 lung | NCI-H460 lung | NCI/ADR-RES ovarian | OVCAR-4 ovarian | OVCAR-8 ovarian | PC-3 prostate | RPMI-8226 leukemia | RXF 393 renal | SF-268 CNS | SF-539 CNS | SK-MEL-28 melanoma | SK-MEL-5 melanoma | SK-OV-3 ovarian | SN12C renal | SNB-19 CNS | SNB-75 CNS | SR leukemia | SW-620 colon | T-47D breast | TK-10 renal | U251 CNS | UACC-257 melanoma | UACC-62 melanoma | UO-31 renal
66.2 µM: NCI-H522 lung
